Bounds are passed on as bounds.

The target of one assay is T1, recombinant CREBBP bromodomain (Homo sapiens, UniProt Q92793).
T1 construct: recombinant CREBBP bromodomain obtained from BPS Bioscience, USA; purchased BPS Bioscience, USA
T1 sequence (Q92793 1085-1192 limits assumed): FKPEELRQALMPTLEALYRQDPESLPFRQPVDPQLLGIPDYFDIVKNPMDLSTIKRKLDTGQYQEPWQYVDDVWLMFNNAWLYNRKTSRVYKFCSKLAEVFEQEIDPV
Description: CBP TR-FRET displacement assay. Format: binding. Particulars: compound at 10 μM. As to the method: The potency of compounds to inhibit CREBBP enzyme was tested in a TR-FRET displacement assay using recombinant CREBBP bromodomain obtained from BPS Bioscience, USA. The assay buffer was 50 mM HEPES (pH 7.5), 50 mM NaCl, 0.008% Brij 35, 0.01% BSA, 1 mM TCEP. 50 nM of CREBBP & 500 nM of Biotinylated ligand was incubated at room temperature for 30 minutes, the reaction was initiated by adding pre-incubated enzyme ligand mixture to the test compounds. After 60 min incubation, the reaction was stopped by the addition of stop mix containing 1 nM of LANCE Europium-anti-6xHis antibody (Perkin Elmer, USA) and 40 nM of Sure Light Allophycocyanin-Streptavidin (Perkin Elmer, USA). Fluorescence emission of the samples at 665 and 615 nm were measured at an excitation of 340 nm and their ratio was plotted against the compound concentrations to generate dose-response curve. The percent inhibition of the test compounds is calculated using the ratio of enzyme activity controls.
elected compounds of the present invention were screened in the above-mentioned assay procedures and IC50 values were determined by fitting the dose-response data to sigmoidal curve fitting equation using Graph pad prism software V7.
(TR-FRET usually uses a lanthanide donor and a delayed reading to cut background.)
The term inhibition denotes how much of the control response was suppressed. Take `CCc1cc2c(N3CCN(C)c4cc(-c5cnn(C)c5)c(C#N)cc43)cccc2[nH]c1=O` [Example 50]: the inhibition at 10 µM was determined as 90%. Same read-out and setting: the result for `Cc1cc2c(N3CCN(C)c4cc(-c5cnn(C)c5)c(CO)cc43)cccc2[nH]c1=O` [Example 58, 5-(7-(Hydroxymethyl)-4-methyl-6-(1-methyl-1H-pyrazol-4-yl)-3,4-dihydroquinoxalin-1(2H)-yl)-3-methylquinolin-2(1H)-one] reads 91%. Still for that read-out and setting: with `Cc1cc2c(N3CCN(C4CCOCC4)c4ccccc43)cccc2n(C)c1=O` [Example 78, 1,3-Dimethyl-5-(4-(tetrahydro-2H-pyran-4-yl)-3,4-dihydroquinoxalin-1(2H)-yl)quinolin-2(1H)-one] the figure was 25%.

Still in this assay, the particulars now being: compound at 10 μM, 10 µM.
In the case of `Cc1cc2c(N3CCN(C)c4cc(-c5cnn(C)c5)c(C#N)cc43)cc(OCC3CCCN(C)C3)cc2n(C)c1=O` (single isomer, unassigned) [Example 248, 4-(1,3-Dimethyl-7-((1-methylpiperidin-3-yl)methoxy)-2-oxo-1,2-dihydroquinolin-5-yl)-1-methyl-7-(1-methyl-1H-pyrazol-4-yl)-1,2,3,4-tetrahydroquinoxaline-6-carbonitrile], the “% Inhibition (10 μM)” value is reported as 100%.

The same assay, now with this note: dose-response, read-out: IC50 (group A, B, C).
What is called IC50 is the concentration needed to halve the response being measured. Regarding `COc1cc(N2CCN(C)c3ccc([S+](C)[O-])cc32)c2cc(C)c(=O)n(C)c2c1` (single isomer, unassigned) [Example 250], the IC50 was above 10 nM. On the same count and under the same terms, the result for `COc1cc(N2CCN(C)c3cc(-c4ccncc4)c(C#N)cc32)c2cc(C)c(=O)n(C)c2c1` [Example 21] reads below 50 nM; that for `COc1cc(N2CCN(C)c3cc(N4CCC(N(C)C)CC4)c(C#N)cc32)c2cc(C)c(=O)n(C)c2c1` [Example 22], below 50 nM; that for `COc1cc(N2CCN(C)c3cc(N4CC(C)NC(C)C4)c(C#N)cc32)c2cc(C)c(=O)n(C)c2c1` (stereo not shown) [Example 24], above 10 nM.

In the case of `CNC(=O)N1CCN(c2cc3c(cc2C#N)N(c2cc(OC)cc4c2cc(C)c(=O)n4C)CCN3C)CC1` [Example 28], the IC50 was below 50 nM. Same read-out and setting: with `COc1cc(N2CCN(C)c3cc(-c4cnn(C)c4)c(F)cc32)c2cc(C)c(=O)n(C)c2c1` [Example 30] the figure was below 50 nM; with `CCN1CCN(c2cc(OC)cc3c2cc(C)c(=O)n3C)c2cc(C#N)c(N3CCN(C(C)=O)CC3)cc21` [Example 32], below 50 nM.

For `COC(=O)c1cc2c(cc1-c1cnn(C)c1)N(C)CCN2c1cc(OC)cc2c1cc(C)c(=O)n2C` [Example 34], the IC50 is below 50 nM.

Consider `Cc1cc2c(N3CCN(C)c4cc(-c5cnn(C)c5)c(C#N)cc43)cc(OCc3ncco3)cc2n(C)c1=O` [Example 41], for which the IC50 was below 50 nM.

As to `Cc1cc2c(N3CCN(C)c4cc(C5=CCN(C)CC5)ccc43)cccc2n(C)c1=O` [Example 44], the IC50 was above 10 nM. The same measure, in the same setting: with `Cc1cc2c(N3CCN(C)c4cc(-c5cnn(C)c5)c(F)cc43)cc(N(C)C)cc2n(C)c1=O` [Example 45] the figure was below 50 nM; with `Cc1cc2c(N3CCN(C)c4cc(-c5cnn(C)c5)c(C#N)cc43)cc(N3CCOCC3)cc2n(C)c1=O` [Example 47], below 50 nM; with `CNC(=O)C1CCN(c2cc3c(cc2F)N(c2cc(N4CCOCC4)cc4c2cc(C)c(=O)n4C)CCN3C)CC1` [Example 49], below 50 nM. On the same count and under the same terms, with `Cc1cc2c(N3CCN(C)c4cc(-c5cnn(C)c5)c(C#N)cc43)cncc2n(C)c1=O` [Example 53] the figure was below 50 nM; with `COc1cc(N2CC(=O)Nc3cc(-c4cnn(C)c4)c(F)cc32)c2cc(C)c(=O)n(C)c2c1` [Example 55], 51 to 100 nM; with `COc1cc(N2CCN(C)c3cc(N4CCC(NC(C)=O)CC4)c(C#N)cc32)c2cc(C)c(=O)n(C)c2c1` [Example 56], below 50 nM.

For `Cc1cc2c(N3CCN(C)c4cc(-c5cnn(C)c5)c(CO)cc43)cccc2[nH]c1=O` [Example 58, 5-(7-(Hydroxymethyl)-4-methyl-6-(1-methyl-1H-pyrazol-4-yl)-3,4-dihydroquinoxalin-1(2H)-yl)-3-methylquinolin-2(1H)-one], the half-inhibitory concentration (IC50) lay within 51 to 100 nM. On the same count and under the same terms, with `COc1cc(N2CCN(C)c3cc(N4CCC(C(=O)NCCO)CC4)c(C#N)cc32)c2cc(C)c(=O)n(C)c2c1` [Example 59, 1-(7-Cyano-1-(7-methoxy-1,3-dimethyl-2-oxo-1,2-dihydroquinolin-5-yl)-4-methyl-1,2,3,4-tetrahydroquinoxalin-6-yl)-N-(2-hydroxyethyl)piperidine-4-carboxamide] the figure was below 50 nM.

With `CC(=O)N1CCN(CCOc2cc(N3CCN(C)c4cc(-c5cnn(C)c5)c(C#N)cc43)c3cc(C)c(=O)n(C)c3c2)CC1` [Example 61, 4-(7-(2-(4-Acetylpiperazin-1-yl)ethoxy)-1,3-dimethyl-2-oxo-1,2-dihydroquinolin-5-yl)-1-methyl-7-(1-methyl-1H-pyrazol-4-yl)-1,2,3,4-tetrahydroquinoxaline-6-carbonitrile], the IC50 is below 50 nM.

As for `COc1cc(N2CCN(C(C)=O)c3cc(-c4cnn(C)c4)c(C#N)cc32)c2cc(C)c(=O)n(C)c2c1` [Example 63, 1-acetyl-4-(7-methoxy-1,3-dimethyl-2-oxo-1,2-dihydroquinolin-5-yl)-7-(1-methyl-1H-pyrazol-4-yl)-1,2,3,4-tetrahydroquinoxaline-6-carbonitrile], the IC50 fell in the range of 51 to 100 nM. Consider `CCS(=O)(=O)N1CCN(c2cccc3c2cc(C)c(=O)n3C)c2ccc(-c3cnn(C)c3)cc21` [Example 74, 5-(4-(Ethylsulfonyl)-6-(1-methyl-1H-pyrazol-4-yl)-3,4-dihydroquinoxalin-1(2H)-yl)-1,3-dimethylquinolin-2(1H)-one], for which the IC50 is above 10 nM. Still for that read-out and setting: with `CNC(=O)N1CCN(c2cccc3c2cc(C)c(=O)n3C)c2ccc(-c3cnn(C)c3)cc21` [Example 75, 4-(1,3-Dimethyl-2-oxo-1,2-dihydroquinolin-5-yl)-N-methyl-7-(1-methyl-1H-pyrazol-4-yl)-3,4-dihydroquinoxaline-1(2H)-carboxamide] the figure was above 10 nM. The same measure, in the same setting: with `Cc1cc2c(N3CCN(C)c4nc(-c5cnn(C)c5)ncc43)cc(N3CCOCC3)cc2n(C)c1=O` [Example 76, 1,3-Dimethyl-5-(8-methyl-2-(1-methyl-1H-pyrazol-4-yl)-7,8-dihydropteridin-5(6H)-yl)-7-morpholinoquinolin-2(1H)-one] the figure was below 50 nM. Take `CNC(=O)c1ccc2c(c1)N(c1cc(OC)cc3c1cc(C)c(=O)n3C)CCN2C` [Example 81]: the IC50 was above 10 nM.

On to `COc1cc(N2CCN(C)c3ccc(-c4nn[nH]n4)cc32)c2cc(C)c(=O)n(C)c2c1` [Example 84, 7-Methoxy-1,3-dimethyl-5-(4-methyl-7-(2H-tetrazol-5-yl)-3,4-dihydroquinoxalin-1(2H)-yl)quinolin-2(1H)-one], for which the IC50 is below 50 nM. Same read-out and setting: the result for `COc1cc(N2CC(=O)N(C)c3ccc(S(N)(=O)=O)cc32)c2cc(C)c(=O)n(C)c2c1` [Example 89] reads above 10 nM; that for `COc1cc(N2CCN(C)c3cc(-c4cnn(C)c4)c(S(N)(=O)=O)cc32)c2cc(C)c(=O)n(C)c2c1` [Example 90], below 50 nM; that for `COc1cc(N2CCN(C)c3ccc(S(=O)(=O)N(C)C)cc32)c2cc(C)c(=O)n(C)c2c1` [Example 93, 4-(7-Methoxy-1,3-dimethyl-2-oxo-1,2-dihydroquinolin-5-yl)-N,N,1-trimethyl-1,2,3,4-tetrahydroquinoxaline-6-sulfonamide], 51 to 100 nM. The same measure, in the same setting: with `Cc1cc2c(N3CCN(C)c4ccc(S(N)(=O)=O)cc43)cc(OC(F)F)cc2n(C)c1=O` [Example 97] the figure was above 10 nM. For `COc1cc(N2CCN(C)c3ccc([S+](C)[O-])cc32)c2cc(C)c(=O)n(C)c2c1` (stereo not shown) [Example 99], the IC50 is 51 to 100 nM.

Source of the values: patent publication US20230322724A1, “HETEROCYCLIC COMPOUNDS AS CBP/EP300 BROMODOMAIN INHIBITORS” (AURIGENE ONCOLOGY LIMITED, priority 2020, published 2023).
